Source: PMC3419191, “Identification of Novel Piperazinylquinoxaline Derivatives as Potent Phosphoinositide 3-Kinase (PI3K) Inhibitors” (PLoS ONE, 2012)

What was measured:
[1] = test system: KB; assay: MTT assay, antiproliferative activity against KB cells; format: cell-based; conditions: Homo sapiens, 72 h, mean of at least two determinations
Source text: (§1) All synthesized target compounds were firstly tested for their antiproliferative activity against five human cancer cell lines, PC3, A549, HCT116, HL60, and KB, using MTT assay.
(§2) Human prostate cancer PC3 cells, lung adenocarcinoma epithelial A549 cells, colon cancer HCT116 cells, promyelocytic leukemia HL60 cells and nasopharyngeal carcinoma KB cells were obtained from the cell bank of the Institute of Biochemistry and Cell Biology, Chinese Academy of Sciences (Shanghai, China). The inhibitory activity of target compounds against tested cancer cell lines was measured using the MTT assay. PC3, A549, HCT116, HL60, and KB cancer cell lines were cultured in RPMI-1640 medium (Invitrogen, Carlsbad, CA, USA) with heat-inactivated 10% fetal bovine serum, penicillin (100 units/mL) and streptomycin (100 µg/mL) and incubated in an atmosphere with 20% oxygen and 5% carbon dioxide at 37°C. All tested compounds were dissolved in DMSO at concentrations of 10.0 mg/mL and diluted to appropriate concentrations. Cells were plated in 96-well plates for 24 h and subsequently treated with different concentrations of all tested compounds for 72 h. Viable cells were determined using 3-(4,5-dimethylthiazol-2-yl)-2,5-diphenyltetrazolium bromide assay kit (MTT, Sigma) according to operation instructions provided by the manufacturer. The concentration of drug causing 50% inhibition in absorbance compared with control cells (IC50) was calculated using the software of dose-effect analysis with microcomputers.

[2] = test system: HCT116; assay: MTT assay, antiproliferative activity against HCT116 cells; format: cell-based; conditions: Homo sapiens, HCT-116, 72 h, mean of at least two determinations
Source text: as §1, §2

[3] = test system: HL60; assay: MTT assay, antiproliferative activity against HL60 cells; format: cell-based; conditions: Homo sapiens, HL-60, 72 h, mean of at least two determinations
Source text: as §1, §2

[4] = test system: A549; assay: MTT assay, antiproliferative activity against A549 cells; format: cell-based; conditions: Homo sapiens, 72 h, mean of at least two determinations
Source text: as §1, §2

[5] = test system: PC3; assay: MTT assay, antiproliferative activity against PC3 cells; format: cell-based; conditions: Homo sapiens, PC-3, 72 h, mean of at least two determinations
Source text: as §1, §2

Row | IC50 [1] [µM] | IC50 [2] [µM] | IC50 [3] [µM] | IC50 [4] [µM] | IC50 [5] [µM] | melting point [°C] | Structure (SMILES)
1 | 2.68 | 1.92 | 9.28 | 49.5 | 3.48 | 174 to 175 | Cc1ccc(S(=O)(=O)c2nc3ccccc3nc2N2CCN(S(=O)(=O)c3ccc(C)cc3)CC2)cc1 [Compound 45, 2-(4-(4-Methylphenylsulfonyl)piperazin-1-yl)-3-(4-methylphenylsulfonyl)-quinoxaline]
2 | 10.2 | 2.55 | 0.21 | 17 | 2.28 | 185 to 187 | COc1ccc(S(=O)(=O)c2nc3ccccc3nc2N2CCC(C(N)=O)CC2)cc1 [Compound 6, 2-(4-Carbamoylpiperidin-1-yl)-3-(4-methoxyphenylsulfonyl)quinoxaline]
3 | 2.53 | 2.37 | 0.54 | 8.57 | 1.55 | 121 to 124 | COc1ccc(S(=O)(=O)c2nc3ccccc3nc2N2CCN(C)CC2)cc1 [Compound 16, 2-(4-Methylpiperazin-1-yl)-3-(4-methoxyphenylsulfonyl)quinoxaline]
4 | 1.22 | 8.88 | 6.95 | 1.16 | 1.77 | 200 to 202 | O=C(c1ccccc1)N1CCN(c2nc3ccccc3nc2S(=O)(=O)c2ccc(F)cc2)CC1 [Compound 33, 2-(4-Benzoylpiperazin-1-yl)-3-(4-fluorophenylsulfonyl)quinoxaline]
5 | 5.17 | 3.76 | 9.48 | 48.2 | 3.39 | 172 to 174 | Cc1ccc(S(=O)(=O)N2CCN(c3nc4ccccc4nc3S(=O)(=O)c3ccc(F)cc3)CC2)cc1 [Compound 48, 2-(4-(4-Methylphenylsulfonyl)piperazin-1-yl)-3-(4-fluorophenylsulfonyl)-quinoxaline]
6 | 5.09 | 10.6 | 6.11 | > 50 | 2.89 | 214 to 216 | O=C(c1ccc(Cl)cc1)N1CCN(c2nc3ccccc3nc2S(=O)(=O)c2ccc(Br)cc2)CC1 [Compound 37, 2-(4-(4-Chlorobenzoyl)piperazin-1-yl)-3-(4-bromophenylsulfonyl)quinoxaline]
7 | – | 2.59 | – | 2.1 | 9.3 | – | COc1ccc(S(=O)(=O)c2nc3ccccc3nc2N2CCN(CCCN3CCOCC3)CC2)cc1 [Compound 51, 2-(4-(3-Morpholinopropyl)piperazin-1-yl)-3-(4-methoxyphenylsulfonyl)-quinoxaline]
8 | 3.89 | 2.6 | 3.28 | 2.42 | 2.27 | 148 to 150 | CC(=O)N1CCN(c2nc3ccccc3nc2S(=O)(=O)c2ccc(C)cc2)CC1 [Compound 10, 2-(4-Acetylpiperazin-1-yl)-3-(4-methylphenylsulfonyl)quinoxaline]
9 | 1.88 | 8.75 | 4.44 | 17.7 | 4.05 | 214 to 215 | O=C(c1ccc(Cl)cc1)N1CCN(c2nc3ccccc3nc2S(=O)(=O)c2ccc(F)cc2)CC1 [Compound 38, 2-(4-(4-Chlorobenzoyl)piperazin-1-yl)-3-(4-fluorophenylsulfonyl)quinoxaline]
10 | 2.84 | 9.84 | 6.09 | 21.6 | 3.61 | 188 to 190 | Cc1ccc(S(=O)(=O)c2nc3ccccc3nc2N2CCN(C(=O)c3ccc(Cl)cc3)CC2)cc1 [Compound 35, 2-(4-(4-Chlorobenzoyl)piperazin-1-yl)-3-(4-methylphenylsulfonyl)quinoxaline]
11 | 11.5 | 0.63 | 0.16 | 1.37 | 0.68 | 142 to 144 | COc1ccc(S(=O)(=O)c2nc3ccccc3nc2N2CCNCC2)cc1 [Compound 21, 2-(Piperazin-1-yl)-3-(4-methoxyphenylsulfonyl)quinoxaline]
12 | – | 0.93 | – | 1.12 | 4.8 | – | O=S(=O)(c1ccc(F)cc1)c1nc2ccccc2nc1N1CCN(CCCN2CCOCC2)CC1 [Compound 53, 2-(4-(3-Morpholinopropyl)piperazin-1-yl)-3-(4-fluorophenylsulfonyl)quinoxaline]
13 | 4.3 | 0.53 | 0.12 | 9.79 | 3.03 | 174 to 178 | CC(=O)N1CCN(c2nc3ccccc3nc2S(=O)(=O)c2ccc(Br)cc2)CC1 [Compound 12, 2-(4-Acetylpiperazin-1-yl)-3-(4-bromophenylsulfonyl)quinoxaline]
14 | 4.58 | 2.43 | 1.39 | 2.79 | 2.05 | – | O=S(=O)(c1ccc(F)cc1)c1nc2ccccc2nc1N1CCNCC1 [Compound 23, 2-(Piperazin-1-yl)-3-(4-fluorophenylsulfonyl)quinoxaline]
15 | 6.03 | 9.62 | 5.58 | > 50 | 2.43 | 179 | COc1ccc(S(=O)(=O)c2nc3ccccc3nc2N2CCN(C(=O)c3ccc(Cl)cc3)CC2)cc1 [Compound 36, 2-(4-(4-Chlorobenzoyl)piperazin-1-yl)-3-(4-methoxyphenylsulfonyl)quinoxaline]
16 | 3.37 | 10.1 | 17.4 | 3.96 | 1.4 | 204 to 205 | O=C(c1ccccc1)N1CCN(c2nc3ccccc3nc2S(=O)(=O)c2ccc(Br)cc2)CC1 [Compound 32, 2-(4-Benzoylpiperazin-1-yl)-3-(4-bromophenylsulfonyl)quinoxaline]
17 | 2.73 | 5.07 | 10.3 | 19.5 | 4.89 | 214 to 216 | Cc1ccc(S(=O)(=O)N2CCN(c3nc4ccccc4nc3S(=O)(=O)c3ccc(Br)cc3)CC2)cc1 [Compound 47, 2-(4-(4-Methylphenylsulfonyl)piperazin-1-yl)-3-(4-bromophenylsulfonyl)-quinoxaline]
18 | 3.67 | 6.9 | 17.3 | 8.03 | 5.81 | 182 to 185 | Cc1ccc(S(=O)(=O)c2nc3ccccc3nc2N2CCN(C(=O)c3ccccc3)CC2)cc1 [Compound 30, 2-(4-Benzoylpiperazin-1-yl)-3-(4-methylphenylsulfonyl)quinoxaline]
19 | 10.3 | 3.66 | 0.48 | 18.6 | 2.18 | 160 to 162 | COc1ccc(S(=O)(=O)c2nc3ccccc3nc2N2CCN(C(C)=O)CC2)cc1 [Compound 11, 2-(4-Acetylpiperazin-1-yl)-3-(4-methoxyphenylsulfonyl)quinoxaline]
20 | 5.65 | 17.2 | 6.93 | 7.43 | 3.63 | 166 to 169 | COc1ccc(S(=O)(=O)c2nc3ccccc3nc2N2CCN(C(=O)c3ccccc3)CC2)cc1 [Compound 31, 2-(4-Benzoylpiperazin-1-yl)-3-(4-methoxyphenylsulfonyl)quinoxaline]
21 | 2.35 | 14.2 | 15 | > 50 | 6.2 | 172 to 175 | COc1ccc(S(=O)(=O)c2nc3ccccc3nc2N2CCN(S(=O)(=O)c3ccc(C)cc3)CC2)cc1 [Compound 46, 2-(4-(4-Methylphenylsulfonyl)piperazin-1-yl)-3-(4-methoxyphenylsulfonyl)-quinoxaline]
22 | 4.22 | 1.61 | 0.15 | 12.1 | 1.17 | 209 to 210 | NC(=O)C1CCN(c2nc3ccccc3nc2S(=O)(=O)c2ccc(Br)cc2)CC1 [Compound 7, 2-(4-Carbamoylpiperidin-1-yl)-3-(4-bromophenylsulfonyl)quinoxaline]
23 | 7.26 | 0.47 | 0.12 | 14.4 | 1.32 | – | Cc1ccc(S(=O)(=O)c2nc3ccccc3nc2N2CCNCC2)cc1 [Compound 20, 2-(Piperazin-1-yl)-3-(4-methylphenylsulfonyl)quinoxaline]
24 | 44.8 | 56 | 9.94 | 89.7 | 61.4 | – | O=c1cc(N2CCOCC2)oc2c(-c3ccccc3)cccc12 [LY294002, 2-(4-morpholinyl)-8-phenyl-4H-1-benzopyran-4-one, reference compound]
25 | – | 0.31 | – | 0.51 | 3.83 | – | Cc1ccc(S(=O)(=O)c2nc3ccccc3nc2N2CCN(CCCN3CCOCC3)CC2)cc1 [Compound 50, 2-(4-(3-Morpholinopropyl)piperazin-1-yl)-3-(4-methylphenylsulfonyl)quinoxaline]
